Data as given in US7019026B1, “Modulators of Protein Tyrosine Phosphatases (PTPases)” (Novo Nordisk A/S, priority 1999, dated 2006).

What was measured:
[1] = target: T1, truncated form of PTP1 B (corresponding to the first 321 amino acids) (Homo sapiens, UniProt P18031); assay: Inhibition of PTP1B (p-nitrophenyl phosphate substrate, enzyme kinetic analysis); assay type: biochemical; details: truncated PTP1B expressed in E. coli; substrate p-nitrophenyl phosphate 0.16 to 10 mM; 50 mM HEPES pH 7.0; 60 minutes; read-out: PTP1B K1 values
T1 construct: truncated form of PTP1 B (corresponding to the first 321 amino acids); made in house; host or cells: E. coli
T1 sequence (P18031 1-321): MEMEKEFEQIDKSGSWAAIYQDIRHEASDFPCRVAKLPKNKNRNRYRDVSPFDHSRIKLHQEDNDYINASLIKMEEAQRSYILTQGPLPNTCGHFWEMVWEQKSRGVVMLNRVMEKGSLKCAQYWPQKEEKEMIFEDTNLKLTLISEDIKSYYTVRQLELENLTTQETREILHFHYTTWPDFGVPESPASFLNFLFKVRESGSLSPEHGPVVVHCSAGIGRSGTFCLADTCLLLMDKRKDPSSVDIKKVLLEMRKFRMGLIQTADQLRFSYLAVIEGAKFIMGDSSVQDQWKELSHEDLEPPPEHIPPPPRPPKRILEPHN
Experimental: The compounds are evaluated for biological activity with a truncated form of PTP1 B (corresponding to the first 321 amino acids), which was expressed in E. coli and purified to apparent homogeneity using published procedures well-known to those skilled in the art. The enzyme reactions are carried out using standard conditions essentially as described by Burke et al. (Biochemistry 35; 15989–15996 (1996)). The assay conditions are as follows. Appropriate concentrations of the compounds of the invention are added to the reaction mixtures containing different concentrations of the substrate, p-nitrophenyl phosphate (range: 0.16 to 10 mM—final assay concentration). The buffer used was 50 mM HEPES pH 7.0, 100 mM sodium chloride, 0.1% (w/v) bovine serum albumin, 5 mM glutathione, and 1 mM EDTA.). The reaction was started by addition of the enzyme and carried out in microtiter plates at […] for 60 minutes. The reactions are stopped by addition of NaOH. The enzyme activity was determined by measurement of the absorbance at 405 nm with appropriate corrections for absorbance at 405 nm of the compounds and p-nitrophenyl phosphate. The data are analyzed using nonlinear regression fit to classical Michaelis Menten enzyme kinetic models. Inhibition is expressed as Ki values in μM.

Row | Compound | Ki [1] [nM] | melting point [°C]
1 | O=C(O)C(=O)Nc1sc2c(c1C(=O)O)CCOC2CN1C(=O)CSC1=O (centres unmarked) [Example 23, 7-(2,4-Dioxo-Thiazolidin-3-ylmethyl)-2-(oxalyl-amino)-4,7-dihydro-5H-thieno[2,3-c]pyran-3-carboxylic acid] | 9700 | –
2 | O=C(O)C(=O)Nc1sc2c(c1C(=O)O)CCOC2CN1C(=O)C=C(c2ccccc2)S1(=O)=O (centres unmarked) [Example 49, 2-(Oxalyl-amino)-7-(1,1,3-trioxo-5-phenyl-1,3-dihydro-isothiazol-2-ylmethyl)-4,7-dihydro-5H-thieno[2,3-c]pyran-3-carboxylic acid] | 1400 | –
3 | O=C(O)C(=O)Nc1sc2c(c1C(=O)O)CC(CN1C(=O)c3cccc(O)c3C1=O)OC2 (centres unmarked) [Example 4, 5-(4-Hydroxy-1,3-dioxo-1,3-dihydro-isoindol-2-ylmethyl)-2-(oxalyl-amino)-4,7-dihydro-5-H-thieno[2,3-c]pyran-3-carboxylic acid] | 1500 | –
4 | CC(=O)Nc1ccc(/C=C2\SC(=O)N(CC3OCCc4c3sc(NC(=O)C(=O)O)c4C(=O)O)C2=O)cc1 (centres unmarked) [Example 39, 7-(5-(4-Acetylamino-benzylidene)-2,4-dioxo-thiazolidin-3-ylmethyl)-2-(oxalyl-amino)-4,7-dihydro-5H-thieno[2,3-c]pyran-3-carboxylic acid] | 7500 | –
5 | O=C(O)C(=O)Nc1sc2c(c1C(=O)O)CCOC2CN1C(=O)c2ccccc2S1(=O)=O (centres unmarked) [Example 46, 2-(Oxalyl-amino)-7-(1,1,3-trioxo-1,3-dihydro-1H-benzo[d]isothiazol-2-ylmethyl)-4,7-dihydro-5H-thieno[2,3-c]pyran-3-carboxylic acid] | 2300 | –
6 | O=C(O)C(=O)Nc1sc2c(c1C(=O)O)CCOC2CN1C(=O)c2cc3c(cc2C1=O)OCO3 (centres unmarked) [Example 27] | 3600 | –
7 | O=C(O)C(=O)Nc1sc2c(c1C(=O)O)CCOC2CN1C(=O)c2cccc(O)c2C1=O (centres unmarked) [Example 25, 7-(4-Hydroxy-1,3-dioxo-1,3-dihydro-isoindol-2-ylmethyl)-2-(oxalyl-amino)-4,7-dihydro-5H-thieno[2,3-c]pyran-3-carboxylic acid] | 7000 | –
8 | O=C(O)C(=O)Nc1sc2c(c1C(=O)O)CCOC2CN1C(=O)S/C(=C\c2c[nH]cn2)C1=O (centres unmarked) [Example 41, 7-(5-(1H-imidazol-4(5)-ylmethylene)-2,4-dioxo-thiazolidin-3-ylmethyl)-2-(oxalyl-amino)-4,7-dihydro-5H-thieno[2,3-c]pyran-3-carboxylic acid] | 1500 | > 250
9 | O=C(O)C(=O)Nc1sc2c(c1C(=O)O)CCOC2Cn1c(=O)c2ccccc2[s+]1[O-] (centres unmarked) [Example 55, 7-(1,3-Dioxo-1,3-dihydro-benzo[d]isothiazol-2-ylmethyl)-2-(oxalyl-amino)-4,7-dihydro-5H-thieno[2,3-c]pyran-3-carboxylic acid] | 1300 | –
10 | O=C(O)C(=O)Nc1sc2c(c1C(=O)O)CCOC2CNC(=O)c1ccc2c(c1)OCO2 (centres unmarked) [Example 28, 7-(((Benzo[1,3]dioxole-5-carbonyl)amino)methyl)-2-(oxalyl-amino)-4,7-dihydro-5H-thieno[2,3-c]pyran-3-carboxylic acid] | 8200 | –
11 | O=C(O)C(=O)Nc1sc2c(c1C(=O)O)CCOC2COC1=NS(=O)(=O)c2ccccc21 (centres unmarked) [Example 47] | 800 | –
12 | O=C(O)C(=O)Nc1sc2c(c1C(=O)O)CCOC2COC1=NS(=O)(=O)C(c2ccccc2)=C1 (centres unmarked) [Example 50, 7-(1,1-Dioxo-5-phenyl-1H-isothiazol-3-yloxymethyl)-2-(oxalyl-amino)-4,7-dihydro-5H-thieno[2,3-c]pyran-3-carboxylic acid] | 3000 | –
13 | COc1ccc2c(c1)C(=O)N(CC1OCCc3c1sc(NC(=O)C(=O)O)c3C(=O)O)C2=O (centres unmarked) [Example 26, 5-(5-Methoxy-1,3-dioxo-1,3-dihydro-isoindol-2-ylmethyl)-2-(oxalyl-amino)-4,7-dihydro-5H-thieno[2,3-c]pyran-3-carboxylic acid] | 1200 | –
